How the values were obtained:
[1] = test system: INS-1 cells; experiment: 2-deoxy-[3H]d-glucose (2-DG) uptake in INS-1 cells; format: cell-based, rat; conditions: overnight incubation, lysine 10 mM, arginine 5 mM, HMB 25 μM, 2-DG uptake over 10 min, FIG. 1
Method: 2-deoxy-[3H]d-glucose (2-DG) (10 μmol/L) uptake was measured over a 10 minute period under conditions in which the uptake was linear. The uptake of 2-DG was terminated after 10 minutes by rapidly aspirating off the radioactive incubation medium and washing the cells three times in ice-cold phosphate-buffered saline. The radioactivity associated with the cells was determined by cell lysis in 0.5 N NaOH with neutralization by the addition of 0.5 N HCl, followed by liquid scintillation. Aliquots from each well were used to determine the protein concentration using the bicinchoninic acid (BCA) Protein assay.

[2] = test system: INS-1 cells; experiment: Acute insulin secretion in INS-1 cells (Rat Insulin Enzyme Immunoassay); format: cell-based; conditions: glucose 10 mM, arginine 5 mM, lysine 10 mM, HMB 25 μM, 2 hours, FIG. 3
Method: Acute insulin secretion was determined by incubating INS-1 cells in the presence of the following effectors: glucose (10 mM), and the effectors arginine (5 mM), lysine (10 mM), HMB (25 μM), and a combination of arginine (5 mM), lysine (10 mM), and HMB (25 μM) for 2 hours. INS-1 cells without effectors were used as a control. Insulin was detected using the Rat Insulin Enzyme Immunoassay (RIEI) Kit (Mercodia, Sweden) according to the manufacturer's instructions.

[3] = test system: INS-1 cells; experiment: Insulin production by INS-1 cells (24 h effectors, then glucose 2 h; RIEI Kit); format: cell-based, rat; conditions: arginine 5 mM, lysine 10 mM, HMB 25 μM for 24 hours, then glucose 10 mM 2 hours, FIG. 4
Method: Insulin production by β-cells was evaluated by incubating INS-1 cells in the presence of the following effectors: arginine (5 mM), lysine (10 mM), HMB (25 μM), and a combination of arginine (5 mM), lysine (10 mM), and HMB (25 μM). INS-1 cells without effectors were again used as a control. The cells were incubated with each of the above mentioned effectors for 24 hours. Following the initial 24 hour incubation period with the effectors, the same INS-1 cells were incubated with glucose (10 mM) for 2 hours. Insulin was again detected using the RIEI Kit according to the manufacturer's instructions.

[4] = test system: INS-1 cells; experiment: MTT cell viability assay in palmitate-treated INS-1 cells; format: cell-based, rat; conditions: palmitate 250 μM 24 hours, effectors added 3 hours before (arginine 5 mM, lysine 10 mM, HMB 25 μM), FIG. 6
Method: This example describes the use of the rat insulinoma cell line (INS-1) to detect the effect of the combination of lysine, arginine, and HMB on the functional characteristics of β-cells in the presence of free fatty acids (e.g., palmitic acid) using standardized protocols for viability. […] The INS-1 cells were maintained in RPMI 1640 medium with 11.1 mmol/L D-glucose supplemented with 10% fetal bovine serum, 100 units/mL penicillin, 100 μg/mL streptomycin, 10 mmol/L HEPES, 2 mmol/L L-glutamine, 1 mmol/L sodium pyruvate, and 50 μmol/L β-mercaptoethanol at 37° C./5% CO2 in a humidified atmosphere.
The pre-confluent pancreatic cells were left either untreated (Control) or treated with palmitate at a concentration of 250 μM for 24 hours in complete medium (Palmitate). Three hours before incubation with palmitate, four different effectors were added: arginine (5 mM), lysine (10 mM), HMB (25 μM), and the combination of arginine (5 mM), lysine (10 mM), and HMB (25 μM).
The cell groups employed in the study were the following: • (i) Control: INS-1 cells without ingredients. • (ii) Palmitate: INS-1 cells incubated in the presence of 250 μM palmitate. • (iii) Palmitate+ARG: INS-1 cells incubated in the presence of 250 μM palmitate and 5 mM of arginine. • (iv) Palmitate+LYS: INS-1 cells incubated in the presence of 250 μM palmitate and 10 mM of lysine. • (v) Palmitate+HMB: INS-1 cells incubated in the presence of 250 μM palmitate and 25 μM of HMB-free acid. • (vi) Palmitate+MIX: INS-1 cells incubated in the presence of 250 μM palmitate and the combination of 5 mM of arginine, 10 mM of lysine, and 25 μM of HMB.
A cell viability assay was performed by the indirect measurement of cell metabolic activity using MTT (3-(4,5-dimethylthiazol-2-yl)-2,5-diphenyltetrazolium bromide). After 24 hours of incubation with the above effectors, the MTT solution (0.5 mg/ml) was added for 30 minutes. The supernatant was removed, 100 μl MTT solvent was added to each well, and the culture plate was shaken for 10 minutes before the Optical Density (OD) values were recorded at 570 nm.

[5] = test system: GLUT2; experiment: Expression level of glucose transporter GLUT2 in INS-1 cells; conditions: HMB 25 μM, FIG. 2; for increase in the relative intensity of the expression level of GLUT2 compared to control: lysine 10 mM, arginine 5 mM
Method: The INS-1 cells were maintained in RPMI 1640 medium with 11.1 mmol/L D-glucose supplemented with 10% fetal bovine serum, 100 units/mL penicillin, 100 μg/mL streptomycin, 10 mmol/L HEPES, 2 mmol/L L-glutamine, 1 mmol/L sodium pyruvate, and 50 μmol/L β-mercaptoethanol at 37° C./5% CO2 in a humidified atmosphere.
The cells were incubated with different effectors overnight. The following cell groups were employed: • (i) Control: INS-1 cells without ingredients. • (ii) ARG: INS-1 cells incubated in the presence of 5 mM of arginine. • (iii) LYS: INS-1 cells incubated in the presence of 10 mM of lysine. • (iv) HMB: INS-1 cells incubated in the presence of 25 μM of HMB-free acid. • (v) MIX: INS-1 cells incubated in the presence of the combination of 5 mM of arginine, 10 mM of lysine, and 25 μM of HMB.

Structure (SMILES) | increase in glucose uptake compared to the control [1] | acute response of insulin secretion to extracellular glucose, with respect to the control (in words) [2] | insulin production compared to the control (in words) [3] | cell viability at 24 hours (in words) [4] | decrease in the relative intensity of the expression level of GLUT2 compared to control [5] | increase in the relative intensity of the expression level of GLUT2 compared to control [5]
CC(C)(O)CC(=O)O [HMB, beta-hydroxy-beta-methylbutyrate] | about 31% | did not show a significant difference | rose slightly | reduced cell viability | ~23% | –
NCCCC[C@H](N)C(=O)O [lysine] | about 100% | did not show a significant difference | rose slightly | reduced cell viability | – | ~90%
N=C(N)NCCC[C@H](N)C(=O)O [arginine] | about 52% | did not show a significant difference | rose slightly | reduced cell viability | – | ~30%

— patent US20240065997A1, “Methods and Compositions for Improving Insulin Production and Secretion” (ABBOTT LABORATORIES, priority 2021, published 2024)
